The test system of this experiment is Ob/Ob Mice. Put plainly: Non-fasted glucose levels in ob/ob mice. The format is in vivo. An excerpt:
They are also hypometabolic and hypothermic. The obesity is characterized by an increase in both the number and the size of adipocytes. Although hyperphagia contributes to the obesity, homozygotes gain excess weight and deposit excess fat even when restricted to a diet sufficient for normal weight maintenance in lean mice. Mice heterozygous for the Lep^ob mutation appear like wild-type and are lean.
Forty-eight (48) B6.V-Lep^ob/J mice (00632, The Jackson Laboratory, JAX^6 mice), homozygous for the Lep^ob mutation and thirty six (36) controls B6.V-Lep^ob/J-lean, heterozygous for the Lep^ob mutation were used to study the effect of SIG1012 on non-fasted glucose levels. The mice were ear notched for identification and housed in individually and positively ventilated polycarbonate cages with HEPA filtered air at a density of 3 mice per cage. Bed-o-cob corn cob bedding was used and cages were changed every two weeks. The animal room was lighted entirely with artificial fluorescent lighting, with a controlled 12 h light/dark cycle (7 am to 7 pm light). The normal temperature and relative humidity ranges in the animal rooms were 22±4° C. and 50±15%, respectively. The animal rooms were set to have 15 air exchanges per hour. Filtered tap water, acidified to a pH of 2.8 to 3.2, and LabDiet AIN-76A was provided ad libitum.
Following acclimation, mice were assigned to groups A through G according to their body weight and genotype:
A Lean heterozygotes—B6.V-Lep^ob/J-lean Mice Fed Control Diet (AIN-76A);
B Lean heterozygotes—B6.V-Lep^ob/J-lean Mice Fed “Low” Compound I-63 (AIN-76A with 0.001% Compound I-63);
C Lean heterozygotes—B6.V-Lep^ob/J-lean Mice Fed “Medium” Compound I-63 (AIN-76A with 0.1% Compound I-63);
D Obese homozygotes—B6. V-Lep^ob/J Mice Fed Control Diet (AIN-76A);
E Obese homozygotes—B6N-Lep^ob/J Mice Fed “Low” Compound I-63 (AIN-76A with 0.001% Compound I-63); […]
Mice from Groups A through G were maintained on the respective diet for 14 days and blood glucose levels were measured weekly.

In the case of `CCCCCCCCCCCCCCCCCCCC(=O)NCCc1c[nH]c2ccc(O)cc12` [Compound I-63, N-(2-(5-hydroxy-1H-indol-3-yl)ethyl)icosanamide], the “effect on non-fasted blood glucose levels” value (heterozygous lean mice control) was “No effect”. Also, the “reduction in non-fasted blood glucose levels” value (homozygous obese mice, compound in diet for 14 days) is 26-30%.

Source of the values: US10583119B2, “Compounds, compositions and methods for making the same” (Signum Biosciences, Inc., priority 2008, dated 2020).
